“And” between values parts separate entries of the source, which are not always exact repeats. Equal entries are not always repeated.
Legend:
Test in all cases: biochemical
Assay type in all cases: biochemical
various kinases [1] = target: various kinases (Homo sapiens, UniProt O43781); conditions: DYRK3
various kinases [2] = target: various kinases (Homo sapiens, UniProt O60674)
various kinases [3] = target: various kinases (Homo sapiens, UniProt P12931); conditions: kinase SRC; ZLYTE
various kinases [4] = target: various kinases (Homo sapiens, UniProt P15056); conditions: BRAF
various kinases [5] = target: various kinases (Homo sapiens, UniProt P16234, D842V); conditions: PDGFRA D842V
Sequence of various kinases (Homo sapiens, UniProt P16234, D842V) (P16234 24-1089 D842V): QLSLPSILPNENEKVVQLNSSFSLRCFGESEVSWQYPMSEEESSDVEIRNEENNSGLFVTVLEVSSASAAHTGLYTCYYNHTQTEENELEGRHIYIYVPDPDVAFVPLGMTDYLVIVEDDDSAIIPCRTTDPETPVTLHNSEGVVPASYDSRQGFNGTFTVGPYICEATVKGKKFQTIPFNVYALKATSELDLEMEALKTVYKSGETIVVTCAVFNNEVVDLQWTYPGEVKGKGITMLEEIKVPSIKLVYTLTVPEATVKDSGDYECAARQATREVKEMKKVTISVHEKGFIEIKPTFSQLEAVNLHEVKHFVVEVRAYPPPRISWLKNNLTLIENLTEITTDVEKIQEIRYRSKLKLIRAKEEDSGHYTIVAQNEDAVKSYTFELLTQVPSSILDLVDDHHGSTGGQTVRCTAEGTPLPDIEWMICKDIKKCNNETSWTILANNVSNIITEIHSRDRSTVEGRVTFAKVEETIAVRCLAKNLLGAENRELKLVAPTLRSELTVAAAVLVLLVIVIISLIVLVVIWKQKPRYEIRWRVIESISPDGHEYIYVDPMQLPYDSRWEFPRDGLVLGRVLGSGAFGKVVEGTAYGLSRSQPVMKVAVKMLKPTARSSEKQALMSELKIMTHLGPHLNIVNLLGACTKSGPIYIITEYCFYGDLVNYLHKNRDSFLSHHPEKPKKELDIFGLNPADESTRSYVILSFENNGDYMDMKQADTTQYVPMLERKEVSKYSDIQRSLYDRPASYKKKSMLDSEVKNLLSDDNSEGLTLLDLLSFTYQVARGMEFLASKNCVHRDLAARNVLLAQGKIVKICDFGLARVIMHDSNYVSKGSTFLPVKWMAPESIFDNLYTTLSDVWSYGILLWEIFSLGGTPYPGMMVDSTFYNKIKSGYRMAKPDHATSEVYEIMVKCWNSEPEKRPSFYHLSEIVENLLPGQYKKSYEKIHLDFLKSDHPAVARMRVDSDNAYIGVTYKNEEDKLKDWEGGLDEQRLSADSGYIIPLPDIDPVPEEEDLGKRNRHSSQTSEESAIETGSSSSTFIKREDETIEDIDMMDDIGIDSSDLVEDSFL

various kinases [6] = target: various kinases (Homo sapiens, UniProt P28482); conditions: MAPK1 (ERK2)
various kinases [7] = target: T1, various kinases (Homo sapiens, UniProt P41743); conditions: kinase PRKCI (PKC iota); ZLYTE
T1 sequence (P41743 1-596): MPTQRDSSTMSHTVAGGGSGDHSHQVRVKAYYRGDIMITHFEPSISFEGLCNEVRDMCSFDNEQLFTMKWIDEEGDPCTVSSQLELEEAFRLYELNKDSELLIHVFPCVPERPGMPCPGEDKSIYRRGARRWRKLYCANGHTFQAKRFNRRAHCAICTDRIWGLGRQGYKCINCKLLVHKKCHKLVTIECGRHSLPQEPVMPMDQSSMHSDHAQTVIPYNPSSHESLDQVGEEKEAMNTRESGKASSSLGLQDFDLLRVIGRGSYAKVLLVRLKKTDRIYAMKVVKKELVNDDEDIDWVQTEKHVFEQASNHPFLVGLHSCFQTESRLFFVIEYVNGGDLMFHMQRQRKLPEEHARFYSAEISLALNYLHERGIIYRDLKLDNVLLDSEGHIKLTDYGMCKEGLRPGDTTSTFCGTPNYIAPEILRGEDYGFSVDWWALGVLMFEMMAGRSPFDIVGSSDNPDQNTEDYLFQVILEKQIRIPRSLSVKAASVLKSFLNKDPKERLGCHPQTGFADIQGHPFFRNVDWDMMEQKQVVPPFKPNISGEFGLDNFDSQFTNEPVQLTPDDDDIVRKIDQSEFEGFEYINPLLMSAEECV

various kinases [8] = target: various kinases (Homo sapiens, UniProt Q05397); conditions: kinase PTK2 (FAK); ZLYTE
Sequence of various kinases (Homo sapiens, UniProt Q05397) (Q05397 whole entry): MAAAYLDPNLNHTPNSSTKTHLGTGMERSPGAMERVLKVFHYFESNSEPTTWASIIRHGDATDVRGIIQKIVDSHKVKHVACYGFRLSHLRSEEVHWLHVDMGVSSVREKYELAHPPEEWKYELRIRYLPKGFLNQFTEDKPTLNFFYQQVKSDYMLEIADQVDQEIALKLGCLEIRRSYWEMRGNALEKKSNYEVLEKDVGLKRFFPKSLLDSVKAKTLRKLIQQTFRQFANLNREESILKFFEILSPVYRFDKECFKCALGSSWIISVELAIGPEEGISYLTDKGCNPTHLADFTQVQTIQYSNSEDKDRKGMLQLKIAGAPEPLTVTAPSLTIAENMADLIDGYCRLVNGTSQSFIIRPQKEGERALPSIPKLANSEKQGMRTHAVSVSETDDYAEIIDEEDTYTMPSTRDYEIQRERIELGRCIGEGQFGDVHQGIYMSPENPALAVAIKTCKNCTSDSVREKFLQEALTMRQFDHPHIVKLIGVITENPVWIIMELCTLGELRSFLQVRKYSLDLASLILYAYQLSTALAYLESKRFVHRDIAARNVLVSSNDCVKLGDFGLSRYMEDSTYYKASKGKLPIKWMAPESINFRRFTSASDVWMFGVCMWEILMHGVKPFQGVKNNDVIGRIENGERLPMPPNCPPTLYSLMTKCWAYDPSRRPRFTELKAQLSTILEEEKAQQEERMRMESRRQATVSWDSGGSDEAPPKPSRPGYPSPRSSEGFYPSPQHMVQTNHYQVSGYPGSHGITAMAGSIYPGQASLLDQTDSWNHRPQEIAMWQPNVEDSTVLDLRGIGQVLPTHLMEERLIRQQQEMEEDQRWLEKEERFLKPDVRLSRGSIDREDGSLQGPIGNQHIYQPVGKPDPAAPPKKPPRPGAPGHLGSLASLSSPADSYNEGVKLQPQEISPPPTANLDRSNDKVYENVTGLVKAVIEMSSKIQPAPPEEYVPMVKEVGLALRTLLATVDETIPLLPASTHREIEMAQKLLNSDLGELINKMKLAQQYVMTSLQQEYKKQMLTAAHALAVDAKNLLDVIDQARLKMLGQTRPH

various kinases [9] = target: T2, various kinases (Homo sapiens, UniProt Q13237); conditions: kinase PRKG2 (PKG2); ZLYTE
T2 sequence (Q13237 1-762): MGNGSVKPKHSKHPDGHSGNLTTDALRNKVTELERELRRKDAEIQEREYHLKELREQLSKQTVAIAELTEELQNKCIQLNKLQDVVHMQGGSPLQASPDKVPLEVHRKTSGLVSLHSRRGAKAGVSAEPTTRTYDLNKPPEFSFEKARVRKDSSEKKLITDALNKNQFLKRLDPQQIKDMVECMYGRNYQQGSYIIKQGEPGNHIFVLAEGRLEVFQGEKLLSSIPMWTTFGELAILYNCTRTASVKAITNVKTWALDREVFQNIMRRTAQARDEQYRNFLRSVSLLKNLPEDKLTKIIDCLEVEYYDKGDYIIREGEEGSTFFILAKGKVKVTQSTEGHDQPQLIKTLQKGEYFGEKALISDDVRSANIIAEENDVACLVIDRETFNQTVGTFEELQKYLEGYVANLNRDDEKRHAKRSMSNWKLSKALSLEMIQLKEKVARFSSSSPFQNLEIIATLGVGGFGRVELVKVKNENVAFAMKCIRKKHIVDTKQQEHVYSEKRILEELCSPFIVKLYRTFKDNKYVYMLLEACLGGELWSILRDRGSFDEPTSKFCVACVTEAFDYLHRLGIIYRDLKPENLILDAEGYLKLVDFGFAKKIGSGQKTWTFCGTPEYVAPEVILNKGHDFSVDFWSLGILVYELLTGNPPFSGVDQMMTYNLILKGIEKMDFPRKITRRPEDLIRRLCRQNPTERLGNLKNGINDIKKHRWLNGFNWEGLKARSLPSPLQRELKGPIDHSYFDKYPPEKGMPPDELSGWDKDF

various kinases [10] = target: various kinases (Homo sapiens, UniProt Q15759); conditions: MAPK11 (p38 beta)
various kinases [11] = target: various kinases (Homo sapiens, UniProt Q9H422); conditions: HIPK3 (YAK1)
various kinases [12] = target: various kinases (Homo sapiens, UniProt Q9NWZ3); conditions: IRAK4
Sequence of various kinases (Homo sapiens, UniProt Q9NWZ3) (Q9NWZ3 whole entry): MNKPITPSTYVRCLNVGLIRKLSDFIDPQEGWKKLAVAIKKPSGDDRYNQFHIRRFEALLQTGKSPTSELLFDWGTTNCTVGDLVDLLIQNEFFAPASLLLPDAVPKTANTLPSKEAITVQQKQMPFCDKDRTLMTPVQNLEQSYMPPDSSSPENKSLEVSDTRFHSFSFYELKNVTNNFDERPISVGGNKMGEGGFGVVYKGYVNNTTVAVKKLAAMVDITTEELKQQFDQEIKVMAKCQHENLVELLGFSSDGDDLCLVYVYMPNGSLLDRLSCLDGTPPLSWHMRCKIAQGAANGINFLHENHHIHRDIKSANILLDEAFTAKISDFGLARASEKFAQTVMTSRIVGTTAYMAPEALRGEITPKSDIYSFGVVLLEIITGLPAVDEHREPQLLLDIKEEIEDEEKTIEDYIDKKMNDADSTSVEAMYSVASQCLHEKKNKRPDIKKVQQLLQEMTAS

various kinases [13] = target: T3, various kinases (Homo sapiens, UniProt Q9UHD2); conditions: kinase TBK1; ZLYTE
T3 sequence (Q9UHD2 1-729): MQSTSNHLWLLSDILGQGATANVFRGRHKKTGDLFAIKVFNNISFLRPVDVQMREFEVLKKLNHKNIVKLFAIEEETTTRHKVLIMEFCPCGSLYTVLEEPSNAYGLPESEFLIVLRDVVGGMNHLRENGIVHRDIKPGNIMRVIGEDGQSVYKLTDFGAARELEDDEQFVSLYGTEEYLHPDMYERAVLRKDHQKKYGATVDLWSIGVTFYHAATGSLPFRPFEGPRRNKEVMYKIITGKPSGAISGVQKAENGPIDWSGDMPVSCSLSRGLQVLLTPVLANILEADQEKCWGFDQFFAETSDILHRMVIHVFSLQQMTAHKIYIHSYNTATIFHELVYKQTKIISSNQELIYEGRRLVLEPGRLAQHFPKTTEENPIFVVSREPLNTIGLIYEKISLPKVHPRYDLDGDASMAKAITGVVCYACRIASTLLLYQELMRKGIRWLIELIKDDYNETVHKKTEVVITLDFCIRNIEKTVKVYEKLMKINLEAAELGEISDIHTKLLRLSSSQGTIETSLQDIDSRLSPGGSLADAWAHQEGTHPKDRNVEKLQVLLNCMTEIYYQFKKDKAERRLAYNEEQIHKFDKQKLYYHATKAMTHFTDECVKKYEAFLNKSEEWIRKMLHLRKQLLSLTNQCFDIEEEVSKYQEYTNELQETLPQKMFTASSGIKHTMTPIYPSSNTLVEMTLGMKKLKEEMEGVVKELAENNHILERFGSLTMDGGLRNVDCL

Sequence of various kinases (Homo sapiens, UniProt P12931) (P12931 whole entry): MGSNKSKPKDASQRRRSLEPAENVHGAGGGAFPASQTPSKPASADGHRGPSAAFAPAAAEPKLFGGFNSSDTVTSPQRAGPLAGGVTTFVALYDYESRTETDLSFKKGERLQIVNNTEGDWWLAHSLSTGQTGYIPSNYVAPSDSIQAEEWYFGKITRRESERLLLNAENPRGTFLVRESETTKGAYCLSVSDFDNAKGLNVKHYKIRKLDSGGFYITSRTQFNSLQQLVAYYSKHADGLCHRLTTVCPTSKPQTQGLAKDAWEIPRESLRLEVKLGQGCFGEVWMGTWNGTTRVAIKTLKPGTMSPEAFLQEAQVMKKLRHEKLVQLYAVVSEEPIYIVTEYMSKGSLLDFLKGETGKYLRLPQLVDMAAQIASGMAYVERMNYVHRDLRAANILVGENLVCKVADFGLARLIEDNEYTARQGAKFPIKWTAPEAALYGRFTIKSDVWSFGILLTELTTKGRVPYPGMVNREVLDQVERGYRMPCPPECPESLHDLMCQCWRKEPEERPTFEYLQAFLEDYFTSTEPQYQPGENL
Sequence of various kinases (Homo sapiens, UniProt O43781) (O43781 whole entry): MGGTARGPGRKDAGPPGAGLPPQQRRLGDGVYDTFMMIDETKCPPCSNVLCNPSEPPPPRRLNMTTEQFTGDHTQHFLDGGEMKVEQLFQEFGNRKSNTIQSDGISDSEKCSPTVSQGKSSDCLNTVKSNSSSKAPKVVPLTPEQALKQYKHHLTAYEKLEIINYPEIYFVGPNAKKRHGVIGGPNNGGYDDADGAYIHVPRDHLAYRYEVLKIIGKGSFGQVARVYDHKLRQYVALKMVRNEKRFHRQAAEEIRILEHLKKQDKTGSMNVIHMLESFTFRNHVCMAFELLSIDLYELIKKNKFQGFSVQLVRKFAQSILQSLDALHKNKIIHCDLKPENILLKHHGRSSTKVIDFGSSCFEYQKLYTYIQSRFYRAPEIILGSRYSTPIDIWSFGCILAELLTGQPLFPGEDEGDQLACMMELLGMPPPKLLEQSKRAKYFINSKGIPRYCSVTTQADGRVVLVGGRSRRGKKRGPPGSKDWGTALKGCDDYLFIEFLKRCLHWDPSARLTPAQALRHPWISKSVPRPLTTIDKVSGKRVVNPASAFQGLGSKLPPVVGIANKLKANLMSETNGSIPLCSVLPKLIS
Sequence of various kinases (Homo sapiens, UniProt O60674) (O60674 whole entry): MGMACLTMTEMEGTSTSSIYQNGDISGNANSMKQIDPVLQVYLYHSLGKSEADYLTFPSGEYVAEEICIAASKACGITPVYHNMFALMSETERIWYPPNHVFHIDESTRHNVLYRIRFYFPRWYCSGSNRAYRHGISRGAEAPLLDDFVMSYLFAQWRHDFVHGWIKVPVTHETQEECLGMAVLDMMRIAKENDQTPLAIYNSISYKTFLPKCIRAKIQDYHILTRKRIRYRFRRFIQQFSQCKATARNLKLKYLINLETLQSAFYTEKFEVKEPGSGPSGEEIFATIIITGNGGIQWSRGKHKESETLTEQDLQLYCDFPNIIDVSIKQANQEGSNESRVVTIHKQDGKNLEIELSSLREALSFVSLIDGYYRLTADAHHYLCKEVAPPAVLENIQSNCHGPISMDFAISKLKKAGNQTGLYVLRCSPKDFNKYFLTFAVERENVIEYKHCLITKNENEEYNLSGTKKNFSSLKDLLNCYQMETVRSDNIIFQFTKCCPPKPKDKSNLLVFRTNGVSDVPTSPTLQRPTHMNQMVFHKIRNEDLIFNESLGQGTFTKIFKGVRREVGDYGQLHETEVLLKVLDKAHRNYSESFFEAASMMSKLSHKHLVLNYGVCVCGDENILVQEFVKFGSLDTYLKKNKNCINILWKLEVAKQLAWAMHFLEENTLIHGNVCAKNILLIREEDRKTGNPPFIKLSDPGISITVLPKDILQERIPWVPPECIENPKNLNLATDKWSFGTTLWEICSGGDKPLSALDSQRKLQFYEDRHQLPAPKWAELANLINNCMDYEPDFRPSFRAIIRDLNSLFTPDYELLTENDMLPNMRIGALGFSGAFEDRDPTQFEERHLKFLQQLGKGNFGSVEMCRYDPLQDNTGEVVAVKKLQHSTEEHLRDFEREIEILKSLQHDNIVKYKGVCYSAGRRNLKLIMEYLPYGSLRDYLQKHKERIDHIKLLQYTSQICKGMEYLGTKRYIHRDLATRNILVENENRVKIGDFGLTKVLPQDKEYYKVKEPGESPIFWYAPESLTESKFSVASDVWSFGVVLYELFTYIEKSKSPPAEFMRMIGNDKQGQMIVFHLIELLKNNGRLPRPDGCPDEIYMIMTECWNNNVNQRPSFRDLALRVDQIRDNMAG

For `COc1ccc2c(c1)[C@]1(C[C@H]1c1ccc3c(/C=C/c4ccc(CN5C[C@@H](C)O[C@@H](C)C5)cc4)n[nH]c3c1)C(=O)N2` [CFI-400945], the “% Inhibition” value (various kinases [1]) was 9% and 5%, the “% Inhibition” value (various kinases [2]; JAK2) was 9% and the “% Inhibition” value (various kinases [2]; JAK2 JH1 JH2) was 7%. For the same compound, the “% Inhibition Average” value (various kinases [3]) was 13%, the “% Inhibition Duplicate #1” value (various kinases [3]) was 13% and the “% Inhibition Duplicate #2” value (various kinases [3]) was 13%. For the same compound, the “% Inhibition” value (various kinases [4]) was -1% and 2%, the “% Inhibition” value (various kinases [5]) was 4% and 10% and the “% Inhibition” value (various kinases [6]) was 9% and 7%. The “% Inhibition Average” value (various kinases [7]) was 6%, the “% Inhibition Duplicate #1” value (various kinases [7]) was 0% and the “% Inhibition Duplicate #2” value (various kinases [7]) was 11%. For the same compound, the “% Inhibition Average” value (various kinases [8]) was 4%, the “% Inhibition Duplicate #1” value (various kinases [8]) was 5% and the “% Inhibition Duplicate #2” value (various kinases [8]) was 3%. For the same compound, the “% Inhibition Average” value (various kinases [9]) was 1%, the “% Inhibition Duplicate #1” value (various kinases [9]) was 2% and the “% Inhibition Duplicate #2” value (various kinases [9]) was 0%. For the same compound, the “% Inhibition” value (various kinases [10]) was 2% and 5%, the “% Inhibition” value (various kinases [11]) was 2% and 3% and the “% Inhibition” value (various kinases [12]) was 0% and -3%. The “% Inhibition Average” value (various kinases [13]) was 4%, the “% Inhibition Duplicate #1” value (various kinases [13]) was 3% and the “% Inhibition Duplicate #2” value (various kinases [13]) was 4%.
